Test results reported in paper PMC13004581, “Physical Mechanisms of an Unconventional Green Fluorescent Protein Indicator for Chloride” (The Journal of Physical Chemistry. B, 2026).

Target: T1, cgreGFP (Clytia gregaria, UniProt D7PM05)
T1 construct: gene GFP2; full-length, N-terminal polyhistidine tag kept (pET-28a(+)-TEV, NdeI/BamHI), codon-optimized gene, expressed in E. coli BL21(DE3)
T1 sequence (D7PM05 1-235): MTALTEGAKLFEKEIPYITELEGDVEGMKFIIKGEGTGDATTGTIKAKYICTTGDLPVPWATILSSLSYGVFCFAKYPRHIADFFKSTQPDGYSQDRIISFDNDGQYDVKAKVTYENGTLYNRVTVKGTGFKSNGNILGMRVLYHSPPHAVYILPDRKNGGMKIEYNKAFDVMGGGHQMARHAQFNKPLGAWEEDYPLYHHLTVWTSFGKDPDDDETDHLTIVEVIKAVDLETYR
Assay: fluorescence titration (ex […] nm, em […] nm)
Assay type: binding
Conditions: read-out: K d (apparent)

Kd [mM] | SMILES
15.1 ± 1.2 | Br [bromide]
5.3 | I [iodide]
10.7 ± 1.2 | O=[N+]([O-])O [nitrate]

SMILES | Kd [mM]
Cl [chloride] | 25.2 ± 2
